Test results taken from patent publication US20220257698A1, “ANGIOTENSIN TYPE 2 (AT2) RECEPTOR AGONISTS FOR USE IN THE TREATMENT OF CANCER” (LANTHIOPEP B.V., priority 2019, published 2022).

Key:
U87MG glioblastoma CDX = assay: Tumor hemoglobin level (indirect angiogenesis) in U87MG CDX; type: in vivo, cd1 nu/nu mice (human GBM cell line); conditions: KcAng(1-7) 1 μg/kg/d, Losartan 20 mg/kg/d, or both
Experimental: Efficacy of treatment was evaluated by: […] Mice with U87MG cell CDX were randomized at day 0. KcAng(1-7) was injected subcutaneously (1 μg/kg) on a daily basis. Losartan was administered intraperitoneal at 20 mg/kg/day. […] In brief, tumors were homogenized in double-distilled water. Eighty microliters of homogenates were mixed with 1 mL of Drabkin's solution and incubated for 15 min at room temperature. After centrifugation at 400×g for 5 min, the supernatants were subjected to absorbance measurement at 540 nm. The absorption, which is proportional to hemoglobin concentration, was divided by tumor weight.

U251MG glioblastoma CDX = assay: Tumor hemoglobin level (indirect angiogenesis) in U251MG CDX; type: in vivo, cd1 nu/nu mice (human GBM cell line); conditions: KcAng(1-7) 1 μg/kg/d, Losartan 20 mg/kg/d, or both
Experimental: Efficacy of treatment was evaluated by: […] In brief, tumors were homogenized in double-distilled water. Eighty microliters of homogenates were mixed with 1 mL of Drabkin's solution and incubated for 15 min at room temperature. After centrifugation at 400×g for 5 min, the supernatants were subjected to absorbance measurement at 540 nm. The absorption, which is proportional to hemoglobin concentration, was divided by tumor weight. Effect of KcAng(1-7) and Losartan against heterotopic U251MG cell culture-based xenografts (CDX) in mice. Animals were treated either with vehicle, treated with 20 mg/kg/d Losartan, treated with 1 μ[…](1-7) or treated with a combination of KcAng(1-7) and with Losartan.

[1] = tested on: MaCa4151 breast cancer PDX model; assay: KcAng(1-7) on growth of breast carcinoma PDX MaCa4151 in mice; type: in vivo, NMRI nu/nu mice (human PDX)
Experimental: In vivo studies were conducted at EPO GmbH Berlin. Large studies (FIG. 1A, 2, 3, 4, 5) comprised 3 groups of 10 mice/group and 5 animals as reserve, as outlined in Table 1. Smaller studies (FIG. 1B, 1C, 1D) comprised 2 groups of mice of 3 mice per group. The animals were allocated to the various treatment groups (e.g. 0.2 μg/kg and 30 μg/kg) with a maximum of 10 animals per group. […] The groups received subcutaneous (s.c.) drug injection (for max. 28 days) as outlined in the Table 1.
NMRI nu/nu mice were used in this study. The animals were female at age of 6 to 8 weeks. The respective PDX tumors were inoculated subcutaneously (s.c.), and the tumors were grown to achieve palpable tumor sizes before start of the respective treatments. The PDX included breast (MaCa4151), colon (Co9689A), head & neck (HN10309), lung (Lu7433) and ovarian (OvCa13329) cancer (Table 2).
Treatment with KcAng(1-7) was started with palpable tumors after the randomization of animals regarding tumor volume. KcAng(1-7) was applied s.c. by daily injections at […] or 30 μg/kg dose for a maximum of 28 days (or earlier as defined by the humane end point for the study).
KcAng(1-7) was prepared as follows: The compounds was suspended in sterile PBS resulting in a clear solution. The remains of this formulation were stored at 4° C.
Tumor growth stimulatory or inhibitory activity of the KcAng(1-7) was evaluated by determination of tumor volumes (TV). During the study, tumor volumes and body weight were measured twice a week, and the ratio of the mean tumor volumes between the compound-treated group and the vehicle-treated group (T/C) was calculated.
Tumor volume=(tumor width)×(tumor width)×(tumor length)+2
T/C=T÷C • T: Mean estimated tumor volume of the compound-treated group • C: Mean estimated tumor volume of the vehicle-treated group

[2] = Gr. B 0.2 μg/kg/d s.c., Day 21 (Meas. 1)
[3] = Gr. B 0.2 μg/kg/d s.c., Day 23 (Meas. 2)
[4] = Gr. B 0.2 μg/kg/d s.c., Day 26 (Meas. 3)
[5] = Gr. B 0.2 μg/kg/d s.c., Day 29 (Meas. 4)
[6] = Gr. B 0.2 μg/kg/d s.c., Day 34 (Meas. 5)
[7] = Gr. B 0.2 μg/kg/d s.c., Day 37 (Meas. 6)
[8] = Gr. C 30 μg/kg/d s.c., Day 21 (Meas. 1)
[9] = Gr. C 30 μg/kg/d s.c., Day 23 (Meas. 2)
[10] = Gr. C 30 μg/kg/d s.c., Day 26 (Meas. 3)
[11] = Gr. C 30 μg/kg/d s.c., Day 29 (Meas. 4)
[12] = Gr. C 30 μg/kg/d s.c., Day 34 (Meas. 5)
[13] = Gr. C 30 μg/kg/d s.c., Day 37 (Meas. 6)

Q: “Lys-Asp-Arg-Val-Abu/Ala-Ile-His-Abu/Ala (KDRVAIHA; not fully specified; cyclic thioether (Abu/Ala bridge); VARIANT (5)..(5) /replace=“Abu”; VARIANT (8)..(8) /replace=“Abu”; SITE (1)..(8) /note=“Variant residues given in the sequence have no preference with respect to those in the annotations for variant positions”) [KcAng(1-7)]” was tested. Which “Tumor hemoglobin level, mean (± SEM)” value (U87MG glioblastoma CDX) did it give?
A: 8.8 ± 1.0 mg hemoglobin/g of tissue

Q: And the “Tumor hemoglobin level, mean (± SEM)” value (U251MG glioblastoma CDX)?
A: 18.7 ± 2.1 mg Hb/g of tissue

Q: And the “effect on tumor growth” value ([1]; 0.2 and 30 μg/kg, 17 days)?
A: did not resulted in an increase of tumor growth or reduced tumor growth

Q: And the “RTV Mean” value [1, 2]?
A: 1

Q: What about the “RTV Median” value [1, 2] of the same substance?
A: 1

Q: What about the T/C [1, 2] of the same substance?
A: 95.7%

Q: What about the “Tumor Vol. Mean” value [1, 2] of the same substance?
A: 0.163 cm^3

Q: What about the “Tumor Vol. Median” value [1, 2] of the same substance?
A: 0.131 cm^3

Q: And the “RTV Mean” value [1, 3]?
A: 1.7

Q: What about the “RTV Median” value [1, 3] of the same substance?
A: 1.6

Q: What about the T/C [1, 3] of the same substance?
A: 105.2%

Q: And the “Tumor Vol. Mean” value [1, 3]?
A: 0.281 cm^3

Q: And the “Tumor Vol. Median” value [1, 3]?
A: 0.241 cm^3

Q: And the “RTV Mean” value [1, 4]?
A: 2.4

Q: And the “RTV Median” value [1, 4]?
A: 2.2

Q: And the T/C [1, 4]?
A: 118.4%

Q: What about the “Tumor Vol. Mean” value [1, 4] of the same substance?
A: 0.392 cm^3

Q: What about the “Tumor Vol. Median” value [1, 4] of the same substance?
A: 0.368 cm^3

Q: And the “RTV Mean” value [1, 5]?
A: 3.4

Q: And the “RTV Median” value [1, 5]?
A: 3.2

Q: And the T/C [1, 5]?
A: 104.9%

Q: And the “Tumor Vol. Mean” value [1, 5]?
A: 0.55 cm^3

Q: What about the “Tumor Vol. Median” value [1, 5] of the same substance?
A: 0.491 cm^3

Q: What about the “RTV Mean” value [1, 6] of the same substance?
A: 6.2

Q: What about the “RTV Median” value [1, 6] of the same substance?
A: 5.2

Q: What about the T/C [1, 6] of the same substance?
A: 120.2%

Q: What about the “Tumor Vol. Mean” value [1, 6] of the same substance?
A: 0.995 cm^3

Q: What about the “Tumor Vol. Median” value [1, 6] of the same substance?
A: 1.021 cm^3

Q: What about the “RTV Mean” value [1, 7] of the same substance?
A: 10.5

Q: And the “RTV Median” value [1, 7]?
A: 7.6

Q: What about the T/C [1, 7] of the same substance?
A: 137%

Q: And the “Tumor Vol. Mean” value [1, 7]?
A: 1.607 cm^3

Q: What about the “Tumor Vol. Median” value [1, 7] of the same substance?
A: 1.452 cm^3

Q: And the “RTV Mean” value [1, 8]?
A: 1

Q: And the “RTV Median” value [1, 8]?
A: 1

Q: What about the T/C [1, 8] of the same substance?
A: 94.8%

Q: And the “Tumor Vol. Mean” value [1, 8]?
A: 0.162 cm^3

Q: What about the “Tumor Vol. Median” value [1, 8] of the same substance?
A: 0.157 cm^3

Q: What about the “RTV Mean” value [1, 9] of the same substance?
A: 1.5

Q: What about the “RTV Median” value [1, 9] of the same substance?
A: 1.5

Q: What about the T/C [1, 9] of the same substance?
A: 92.6%

Q: What about the “Tumor Vol. Mean” value [1, 9] of the same substance?
A: 0.248 cm^3

Q: What about the “Tumor Vol. Median” value [1, 9] of the same substance?
A: 0.165 cm^3

Q: What about the “RTV Mean” value [1, 10] of the same substance?
A: 2.4

Q: And the “RTV Median” value [1, 10]?
A: 2.5

Q: And the T/C [1, 10]?
A: 122.3%

Q: What about the “Tumor Vol. Mean” value [1, 10] of the same substance?
A: 0.405 cm^3

Q: What about the “Tumor Vol. Median” value [1, 10] of the same substance?
A: 0.383 cm^3

Q: And the “RTV Mean” value [1, 11]?
A: 4

Q: What about the “RTV Median” value [1, 11] of the same substance?
A: 4

Q: What about the T/C [1, 11] of the same substance?
A: 125%

Q: And the “Tumor Vol. Mean” value [1, 11]?
A: 0.655 cm^3

Q: And the “Tumor Vol. Median” value [1, 11]?
A: 0.671 cm^3

Q: What about the “RTV Mean” value [1, 12] of the same substance?
A: 6.8

Q: What about the “RTV Median” value [1, 12] of the same substance?
A: 6.5

Q: What about the T/C [1, 12] of the same substance?
A: 130.6%

Q: And the “Tumor Vol. Mean” value [1, 12]?
A: 1.081 cm^3

Q: What about the “Tumor Vol. Median” value [1, 12] of the same substance?
A: 1.072 cm^3

Q: And the “RTV Mean” value [1, 13]?
A: 9.8

Q: What about the “RTV Median” value [1, 13] of the same substance?
A: 9.1

Q: What about the T/C [1, 13] of the same substance?
A: 131.2%

Q: And the “Tumor Vol. Mean” value [1, 13]?
A: 1.539 cm^3

Q: What about the “Tumor Vol. Median” value [1, 13] of the same substance?
A: 1.522 cm^3
